Converted amounts (≈) assume the structure as drawn. Blank lines part the entries; values can stand above or below the molecule they belong to. Residues, ends and D or L forms follow the SMILES beside them. *: point of attachment. CF3 = FC(F)(F)*; Moc = COC(=O)*
Assays:
[1] = system: Human immunodeficiency virus; test: Antiviral activity against HIV infected in human MT-2 cells; format: functional, organism-based; conditions: Human immunodeficiency virus 1, MT2
[2] = target: Human immunodeficiency virus type 1 protease (Human immunodeficiency virus 1, UniProt Q72874); test: Inhibition of HIV-1 protease
[3] = Inhibition of beta-lactamase AmpC (unknown origin); design: species or system Bacteria
[4] = system: Escherichia coli; test: Antibacterial activity against Escherichia coli; format: functional
[5] = system: MCF7; test: Antiproliferative activity against human MCF7 cells assessed as inhibition of cell growth incubated for 48 hrs by SRB assay; format: functional, cell-based; conditions: MCF7, 48 h
[6] = Solubility of compound at pH 2; format: physicochemical; conditions: buffer
[7] = target: Autotaxin (Homo sapiens, UniProt Q13822); test: Inhibition of autotaxin (unknown origin)
[8] = target: T1, Neutrophil elastase (Homo sapiens, UniProt P08246); test: Inhibition of human neutrophil elastase
T1 sequence (P08246 whole entry): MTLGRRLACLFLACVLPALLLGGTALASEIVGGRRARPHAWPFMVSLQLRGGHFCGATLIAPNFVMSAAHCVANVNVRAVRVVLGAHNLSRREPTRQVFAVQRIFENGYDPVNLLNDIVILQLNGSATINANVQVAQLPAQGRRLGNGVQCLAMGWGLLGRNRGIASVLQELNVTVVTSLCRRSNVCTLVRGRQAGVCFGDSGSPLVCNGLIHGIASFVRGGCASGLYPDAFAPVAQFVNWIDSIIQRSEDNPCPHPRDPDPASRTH

Structure (SMILES): COc1ccc(/C=C\c2cc(OC)c(OC)c(OC)c2)cc1O [COMBRETASTATIN A4]
IC50 [5]: 32 nM | solubility [6]: 18.9 µg/mL (≈ 59.7 µM)

Structure (SMILES): COc1ccc(/C=C\c2cc(OC)c(OC)c(OC)c2)cc1B(O)O
solubility [6]: 33.8 µg/mL (≈ 98.2 µM)

Structure (SMILES): COC(=O)N[C@H](C(=O)N1CCC[C@H]1C(=O)N[C@H](C(=O)C(F)(F)F)C(C)C)C(C)C (Moc-Val-Pro-Val-CF3)
IC50 [8]: 135 nM

Structure (SMILES): COC(=O)N[C@H](C(=O)N1CCC[C@H]1C(=O)N[C@H](B(O)O)C(C)C)C(C)C
IC50 [8]: 0.27 nM

Further lines, results first:

IC50 [1]: 37.7 nM | Ki [2]: 0.0155 nM
Structure (SMILES): CC(C)CN(C[C@@H](O)[C@H](Cc1ccccc1)NC(=O)OC1C2COC3OCC1C3C2)S(=O)(=O)c1ccc(B(O)O)cc1 (stereo partly drawn)

Ki [3]: 10 nM | MIC [4]: 1 µg/mL (≈ 4.46 µM)
Structure (SMILES): OB(O)c1cnn(-c2cc(Cl)ncn2)c1

Ki [3]: 0.8 nM
Structure (SMILES): O=S(=O)(Cc1ccc(-c2nnn[nH]2)nc1)NCB(O)O

IC50 [7]: 28 nM
Structure (SMILES): COc1cc(/C=C2\SC(=O)N(Cc3ccc(F)cc3)C2=O)ccc1OCc1ccc(B(O)O)cc1

IC50 [1]: > 1000 nM | Ki [2]: 0.0129 nM
Structure (SMILES): CC(C)CN(C[C@@H](O)[C@H](Cc1ccccc1)NC(=O)O[C@H]1CO[C@H]2OCC[C@H]21)S(=O)(=O)c1ccc(C(=O)O)cc1
